pIC50: −log10 of the molar value.
Legend:
Type in all cases: biochemical
Recombinant GST-Tie2 = Recombinant GST-Tie2 (Homo sapiens, UniProt Q02763); assay: Tie2 Fluorescence Polarization Kinase Activity Assay (TIE2-FP)
Protocol: Tie2 Fluorescence Polarization Kinase Activity Assay: (TIE2-FP)
Activation of Recombinant Tie2 Activation:
Recombinant GST-Tie2 is activated by incubating the enzyme in 20 mM Tris-HCl, pH 7.5, 12 mM MgCl2, 100 mM NaCl, 20 μM sodium vanidate, 1 mM DTT and 300 μM ATP at room temperature for 2 hours. The activation mixture is then passed through a NAP-25 desalting column (Pharmacia Biotech cat. no. 17-0852-02) to remove the free ATP. The activated enzyme is stored as aliquots at −80° C. in 20 mM Tris-HCl, pH 7.5 and 100 mM NaCl.
The final assay conditions are 50 mM HEPES, pH 7.5, 5% DMSO (when screening compounds), 200 μM ATP, 5 mM MgCl2, 1 mM DTT, 50 μM sodium vanidate, 1 nM activated enzyme, and 200 μM peptide. IC50's of compounds are measured under subsaturating ATP (200 μM) and varying concentrations of activated Tie2 and peptide substrate (RFWKYEFWR-OH; MW 1873 Da, TFA salt). Panvera Anti-phosphotyrosine antibody (Cat#P2840) and PTK Green Tracer (Cat#P2842) are used to detect the phosphorylated peptide. Polarization is measured on a TECAN Polarion in 138-second cycles for 30 minutes at room temperature. IC50's are then determined from the % polarization using normal calculation methods. The IC50 values are converted to pIC50 values, i.e., −log IC50 in Molar concentration.

[1] = biological target: T1, catalytic domain of human VEGFR3 (Homo sapiens, UniProt P35916, H890Q); assay: VEGFR-3 Homogenous Time-Resolved Fluorescence Assay (VEGFR-3-HTRF)
T1 construct: made in house; host or cells: Sf9 insect cells (baculovirus, pFastBac1)
T1 sequence (P35916 with tags, fused parts or gaps isoform P35916-1 H890Q): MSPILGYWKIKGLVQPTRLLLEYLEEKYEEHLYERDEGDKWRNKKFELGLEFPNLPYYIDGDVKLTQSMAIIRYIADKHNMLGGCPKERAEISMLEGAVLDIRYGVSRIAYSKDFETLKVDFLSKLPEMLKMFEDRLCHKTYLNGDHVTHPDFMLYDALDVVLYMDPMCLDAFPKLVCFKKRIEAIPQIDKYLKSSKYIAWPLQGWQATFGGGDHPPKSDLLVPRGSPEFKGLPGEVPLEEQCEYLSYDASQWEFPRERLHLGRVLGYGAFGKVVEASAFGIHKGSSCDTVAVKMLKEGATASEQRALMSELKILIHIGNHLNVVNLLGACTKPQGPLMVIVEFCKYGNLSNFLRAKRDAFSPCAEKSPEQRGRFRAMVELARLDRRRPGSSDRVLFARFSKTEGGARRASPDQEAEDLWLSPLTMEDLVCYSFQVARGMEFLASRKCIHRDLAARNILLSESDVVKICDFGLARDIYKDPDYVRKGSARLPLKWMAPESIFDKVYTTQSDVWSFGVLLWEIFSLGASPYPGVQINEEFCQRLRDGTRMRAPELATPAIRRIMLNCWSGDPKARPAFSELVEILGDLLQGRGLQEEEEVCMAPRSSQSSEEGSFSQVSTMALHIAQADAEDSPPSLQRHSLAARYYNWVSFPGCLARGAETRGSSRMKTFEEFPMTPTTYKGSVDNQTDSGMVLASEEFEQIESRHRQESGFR
How it was run: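 GST-tagged human VEGFR3 catalytic domain (aa 819–1298, Sf9-expressed), pre-autophosphorylated 45 min with ATP/Mg, then 1 nM enzyme with 0.36 μM biotinylated peptide, 75 μM ATP, 10 mM MgCl2, pH 7.2, 1.5 h at room temperature. EDTA stop; HTRF detection; IC50 from hyperbolic fit of % control.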

GST-VEGFR2 = biological target: T2, GST-VEGFR2 (Homo sapiens, UniProt P35968); assay: VEGF-R2 Enzyme Assay (VEGF-E2), LANCE method; conditions: for pIC50: read-out: VEGFR2 PIC50 VEGFR-E2 assay
T2 construct: GST-VEGFR2, baculovirus expressed recombinant constructs of the intracellular domains; made in house
T2 sequence (P35968 786-1356 limits assumed): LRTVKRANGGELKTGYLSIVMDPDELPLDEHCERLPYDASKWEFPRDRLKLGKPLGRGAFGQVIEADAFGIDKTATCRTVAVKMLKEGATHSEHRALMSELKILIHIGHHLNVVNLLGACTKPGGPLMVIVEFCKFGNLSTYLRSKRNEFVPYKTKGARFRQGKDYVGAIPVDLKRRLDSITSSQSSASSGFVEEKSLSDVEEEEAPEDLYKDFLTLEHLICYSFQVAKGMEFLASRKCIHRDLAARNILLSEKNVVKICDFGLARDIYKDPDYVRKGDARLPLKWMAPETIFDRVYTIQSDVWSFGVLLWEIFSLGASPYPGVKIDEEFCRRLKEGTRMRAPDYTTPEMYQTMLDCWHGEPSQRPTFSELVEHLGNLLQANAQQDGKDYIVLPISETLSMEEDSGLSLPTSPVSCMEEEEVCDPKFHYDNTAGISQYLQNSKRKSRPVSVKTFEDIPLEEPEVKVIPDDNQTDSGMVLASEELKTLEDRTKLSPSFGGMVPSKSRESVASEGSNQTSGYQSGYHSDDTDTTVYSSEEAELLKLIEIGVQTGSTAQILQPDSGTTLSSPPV

[2] = biological target: T3, GST-TIE2 (intracellular domains of human TIE2) (Homo sapiens, UniProt Q02763); assay: TIE-2 Enzyme Assay (TIE2-E2), LANCE method; conditions: read-out: TIE2 PIC50 TIE2-E2 assay
T3 construct: made in house
T3 sequence (Q02763 762-1104): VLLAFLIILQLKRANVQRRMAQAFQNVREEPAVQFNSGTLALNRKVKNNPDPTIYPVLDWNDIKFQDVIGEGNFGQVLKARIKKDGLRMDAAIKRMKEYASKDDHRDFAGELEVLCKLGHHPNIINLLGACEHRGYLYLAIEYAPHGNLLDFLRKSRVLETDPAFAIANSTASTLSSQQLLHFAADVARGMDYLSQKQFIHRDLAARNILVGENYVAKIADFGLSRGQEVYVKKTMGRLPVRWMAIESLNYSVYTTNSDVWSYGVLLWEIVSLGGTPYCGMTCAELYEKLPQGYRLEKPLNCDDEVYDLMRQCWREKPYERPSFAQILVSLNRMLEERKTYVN
How it was run: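 GST-tagged human TIE2 intracellular domain (aa 762–1104), preactivated 2 h with 80 μM ATP, then 5 nM enzyme run 2 h at room temperature with 1 μM biotinylated D1–15 peptide, 80 μM ATP, HEPES pH 7.4, 2.4% DMSO. Phosphotyrosine detected by LANCE (Eu anti-pTyr/streptavidin-APC) after EDTA stop; IC50 by nonlinear regression, reported as pIC50.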

Recombinant GST-Tie2, sequence (Q02763 23-1124): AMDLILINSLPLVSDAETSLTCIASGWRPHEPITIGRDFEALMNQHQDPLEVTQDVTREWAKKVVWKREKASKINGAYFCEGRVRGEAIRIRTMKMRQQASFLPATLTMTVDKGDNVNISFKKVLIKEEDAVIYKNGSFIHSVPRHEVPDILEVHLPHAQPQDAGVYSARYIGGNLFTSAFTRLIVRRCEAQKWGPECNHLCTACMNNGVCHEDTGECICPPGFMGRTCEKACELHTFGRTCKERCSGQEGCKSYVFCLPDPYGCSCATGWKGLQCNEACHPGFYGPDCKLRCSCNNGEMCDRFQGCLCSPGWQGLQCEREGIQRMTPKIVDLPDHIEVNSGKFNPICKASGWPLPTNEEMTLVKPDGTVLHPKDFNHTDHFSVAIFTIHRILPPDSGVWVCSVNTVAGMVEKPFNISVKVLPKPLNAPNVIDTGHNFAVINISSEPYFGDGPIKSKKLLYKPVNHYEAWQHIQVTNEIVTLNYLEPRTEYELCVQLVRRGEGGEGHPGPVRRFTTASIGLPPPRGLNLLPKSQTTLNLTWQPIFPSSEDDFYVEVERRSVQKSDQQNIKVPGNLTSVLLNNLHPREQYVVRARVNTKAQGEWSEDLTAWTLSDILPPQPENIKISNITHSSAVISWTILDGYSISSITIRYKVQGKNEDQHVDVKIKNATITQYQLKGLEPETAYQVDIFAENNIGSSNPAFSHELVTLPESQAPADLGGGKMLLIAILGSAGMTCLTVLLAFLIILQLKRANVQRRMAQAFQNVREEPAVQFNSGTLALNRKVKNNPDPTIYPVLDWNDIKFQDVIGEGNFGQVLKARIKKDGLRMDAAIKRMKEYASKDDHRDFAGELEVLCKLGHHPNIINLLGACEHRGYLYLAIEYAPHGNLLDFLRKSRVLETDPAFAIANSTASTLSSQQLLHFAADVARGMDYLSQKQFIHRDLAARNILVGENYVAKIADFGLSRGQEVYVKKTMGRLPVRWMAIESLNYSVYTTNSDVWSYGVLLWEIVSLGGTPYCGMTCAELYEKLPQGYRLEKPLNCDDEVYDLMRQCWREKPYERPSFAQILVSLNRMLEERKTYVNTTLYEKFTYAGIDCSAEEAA

| Compound | TIE2 % inhibition (at 10 μM) TIE2-FP assay (Recombinant GST-Tie2; at 10 μM) | VEGFR3 PIC50 VEGFR-3-HTRF assay [1] | VEGFR2 PIC50 VEGFR-E2 assay (GST-VEGFR2) | pIC50 (Recombinant GST-Tie2) | inhibition at 10 µM (Recombinant GST-Tie2) | pIC50 (GST-VEGFR2) | pIC50 [2] |
| --- | --- | --- | --- | --- | --- | --- | --- |
| 1-{4-[Benzyl-(2-morpholin-4-yl-ethylamino)-1H-pyrazolo[3,4-d]pyrimidin-3-yl]-phenyl}-3-(fluoro-trifluoromethyl-phenyl)-thiourea [Example 51] | 0% | + (+ = PIC50 = 5.00 to less than 6.00) | + (+ = PIC50 = 5.00 to less than 6.00) |  |  |  |  |
| CCN(CC)CCCCNc1ncnc2c1c(-c1ccc(NC(=O)Nc3cc(C(F)(F)F)ccc3F)cc1)nn2C [Example 34, 1-{4-[(4-Diethylamino-butylamino)-methyl-1H-pyrazolo[3,4-d]pyrimidin-3-yl]-phenyl}-3-(2-fluoro-5-trifluoromethyl-phenyl)-urea] |  | + (+ = PIC50 = 5.00 to less than 6.00) | + (+ = PIC50 = 5.00 to less than 6.00) | > 7.00 |  |  |  |
| O=C(Nc1ccc(-c2n[nH]c3ncnc(N(CCN4CCOCC4)Cc4ccccc4)c23)cc1)Nc1cc(C(F)(F)F)ccc1F [Example 50, 1-{4-[Benzyl-(2-morpholin-4-yl-ethylamino)-1H-pyrazolo[3,4-d]pyrimidin-3-yl]-phenyl}-3-(fluoro-trifluoromethyl-phenyl)-urea] |  | + (+ = PIC50 = 5.00 to less than 6.00) | ++ (++ = PIC50 = 6.00 to less than 7.00) | > 7.00 |  |  |  |
| CCc1cccc(NC(=O)Nc2ccc(-c3nn(Cc4ccccc4)c4nc(NCCN5CCOCC5)ncc34)cc2)c1 [Example 52, 1-{4-[Benzyl-(2-morpholin-4-yl-ethylamino)-1H-pyrazolo[3,4-d]pyrimidin-3-yl]-phenyl}-3-(ethyl-phenyl)-urea] |  | + (+ = PIC50 = 5.00 to less than 6.00) | + (+ = PIC50 = 5.00 to less than 6.00) | 6.52 to 7.00 |  |  |  |
| Cc1cc(-c2nn(C)c3nc(NCCN4CCOCC4)ncc23)ccc1NS(=O)(=O)c1cccc(Cl)c1Cl [Example 151] |  |  |  |  | 41% | < 5.00 |  |
| Cn1nc(-c2ccc(NS(=O)(=O)c3cccc(C(F)(F)F)c3)c(C(F)(F)F)c2)c2cnc(NCCN3CCOCC3)nc21 [Example 157] |  |  |  |  | 0% | < 5.00 |  |
| CC(=O)c1cccc(NC(=O)Nc2ccc(-c3nn(C)c4nc(NCCN5CCOCC5)ncc34)cc2C)c1 [Example 163] |  |  |  |  | 25% |  | < 5.00 |

From patent US7217710B2, “Substituted pyrazolopyrimidines” (SmithKline Beecham Corporation, priority 2001, dated 2007)
